In patent US11982671B2, “Identification of a T cell epitope of Prevotella copri that induces T cell responses in patients with rheumatoid arthritis” (priority 2016, dated 2024):

Tests used:
PBMC from RA patients [1] = experiment: IFN-γ/IL17 Double-Color ELISpot with GNS, FLNA and microbial peptides; assay type: cell-based, human; settings: 24 NORA patients, single peptide 1 μM
Protocol: Enzyme-linked immunospot (ELISpot) T cell assay. A detailed description of the methods for isolation and identification of HLA-DR presented peptides is given in previous publications (19, 20). In the current study, all non-redundant HLA-DR-presented peptides identified from patient RA1 were synthesized (Mimotopes, Australia) and tested for reactivity in sets of 3 (1 μM of each peptide) with the patient's PBMC using IFN-γ ELISpot assays. […] For testing in larger numbers of patients and control subjects who would have a range of HLA-DR genotypes, the original peptides identified from the patient (shown in bold) and 3 additional promiscuous peptides that were predicted to bind>16 HLA-DR molecules were synthesized and HPLC-purified in the MGH Core Facility. The sequences of the GNS peptides were as follows: 47PNVVLLLTDDQDE59 (SEQ ID NO: 13), 222FEPFFMMIATPAPH235 (SEQ ID NO: 14), 451TYACVRTMSALWNLQ465 (SEQ ID NO: 15), 504NYRLMMLQSCSGPTC518 (SEQ ID NO: 16). The sequences of the FLNA peptides were as follows: 73DGLRLIALLEVLSQKK88 (SEQ ID NO: 17), 118SIKLVSIDSKAIVDG132 (SEQ ID NO: 18), 416VEVVIQDPMGQKG428 (SEQ ID NO: 19), 2446NPAEFVVNTSNAGAG2460 (SEQ ID NO: 20).
To assess microbial sequence homology with the GNS peptide 222FEPFFMMIATPAPH235 (SEQ ID NO: 21), the following microbial peptides were tested: 231KKPFFMMVAMNPPH245 (SEQ ID NO: 22), which was derived from the arylsulfatase protein of Prevotella sp. (WP_062433009.1) and 247DVPFFMMWTTPLPH261 (SEQ ID NO: 23), derived from the N-acetylgalactosamine-6-sulfatase of Parabacteroides sp. (WP_046148720.1).
To evaluate the microbial sequence homology for the FLNA peptide 2446NPAEFVVNTSNAGAG2460 (SEQ ID NO: 24), the following microbial peptides were tested: 133QGFVVKTANAGAL146 (SEQ ID NO: 25), which was derived from an uncharacterized protein of Prevotella sp. (WP_028897633.1) and 90ANFMINVSNAGAL103 (SEQ ID NO: 26), derived from an uncharacterized protein of Butyricimonas sp. (WP_065219401.1). The RA patients' PBMC were stimulated with the pool of peptides or single peptides, and analyzed for reactivity with a human IFN-γ/IL17 Double-Color ELISpot kit (Cellular Technology Limited). All peptides (1 μM) were tested in duplicate wells, as were positive (phytohemagglutinin) and negative (no antigen) control samples. After 5 days, cells were transferred to ELISpot plates coated with IFN-γ/IL17 antibodies, and incubated overnight. Images of wells were captured using ImmunoSpot series 3B analyzer, and spots were counted using ImmunoSpot software. A positive T cell response was defined as 3 standard deviations (SD) above the mean value of healthy control subjects.

PBMC from RA patients [2] = experiment: IFN-γ/IL-17 ELISpot T cell assay with Pc-p27 peptides; assay type: cell-based, human
Description: Enzyme-linked immunospot (ELISpot) T cell assay. A detailed description of the methods for isolation and identification of HLA-DR presented peptides is given in Seward et al., 2011. In initial experiments in this study, one microbial peptide (^2KRIILILTVLLAMLGQVAY^20)(SEQ ID NO: 6) derived from a 27 kDa P. copri protein (WP_022121928.1) was identified from the PBMC of one RA patient. This P. copri peptide and 2 additional peptides from the same protein, which were predicted to be promiscuous T cell epitopes (^52DYRGYWTMRYQFDSATVS^69 (SEQ ID NO: 7), ^118EKINSLPTSSTGI^130 (SEQ ID NO: 8)), were synthesized and HPLC-purified in the Core Proteomics Laboratory at MGH. […] Cells were then transferred to Dual Color ELISpot plates coated with IFN-γ/IL17 antibodies (Cellular Technology Limited), and incubated overnight at 37° C. Images of wells were captured using ImmunoSpot series 3B analyzer, and spots were counted using ImmunoSpot software. A positive T cell response was defined as 3 standard deviations (SD) above the mean value of healthy subjects.

[3] = test system: serum IgG and IgA autoantibodies; experiment: ELISA for serum IgG and IgA anti-GNS and anti-FLNA autoantibodies; assay type: binding, human; settings: for patients with IgA antibody responses >3 SD above HC: 101 RA patients; for patients with IgG antibody responses >3 SD above HC: 101 RA patients (NORA and CRA), serum diluted 50-fold; for IgG antibody responses to citrullinated versus uncitrullinated protein: 46 RA patients, protein citrullinated in vitro with rhPAD4
Protocol: ELISA for serum IgG and IgA anti-GNS and anti-FLNA autoantibodies. ELISA plates were coated with 0.5 μg/ml of recombinant human N-acetylglucosamine-6-sulfatase (Novoprotein, Summit, N.J.) or filamin A (Novusbio, Littleton, Colo.) overnight at 4° C. Subsequent incubations and washes were performed at room temperature. After washing with phosphate buffered saline with 0.05% Tween-20 (PBST), the plates were blocked with blocking buffer (5% nonfat dry milk in PBST) for one hour. Afterwards, 100 μl of each patient's serum sample (diluted 50-fold) was added in duplicate wells for 1.5 hours, followed by horseradish-peroxidase (HRP)-conjugated goat anti-human IgG (sc-2453, Santa Cruz Biotech) or HRP-conjugated goat anti-human IgA (Bio-Rad, Hercules, Calif.), and then TMB substrate (BD, San Diego, Calif.). For inter-plate standardization, 2 control samples were included with each assay.
In vitro citrullination assay. Human recombinant N-acetylglucosamine-6-sulfatase (2 μg) or filamin A (2 μg) were incubated with rhPAD-4 (400 ng), generously provided by Maximilian Koenig from the laboratory of Felipe Andrade, in 1M Tris (pH 7.6) in presence of 200 mM CaCl2. A negative control reaction was performed substituting 200 mM CaCl2 with 200 mM EDTA. Incubation was performed at 37° C. for 3 hours. Protein citrullination was determined by anti-modified citrulline immunoblotting, according to the recommendations of the manufacturer (Millipore).

In the case of “ANFMINVSNAGAL (Butyricimonas sp. Marseille-P2440) [Butyricimonas peptide, peptide from an uncharacterized protein of Butyricimonas sp]”, the “patients with T cell reactivity >3SD above the mean values in HC” value (shortened to “patients … in HC”) (PBMC from RA patients [1]) is reported as 29%.

For “DVPFFMMWTTPLPH (Parabacteroides sp. HGS0025) [Parabacteroides peptide, peptide from N-acetylgalactosamine-6-sulfatase of Parabacteroides sp]”, the “patients … in HC” value (PBMC from RA patients [1]) was 25%.

In the case of “FEPFFMMIATPAPH (listed as Homo sapiens) [GNS peptide, HLA-DR-presented self peptide from N-acetylglucosamine-6-sulfatase]”, the “patients … in HC” value (PBMC from RA patients [1]) is reported as 33%.

With “KKPFFMMVAMNPPH (Prevotella sp. DNF00663) [Prevotella peptide, peptide from arylsulfatase protein of Prevotella sp., homologous to the GNS peptide]” the “patients … in HC” value (PBMC from RA patients [1]) was 38%.

With “KRIILILTVLLAMLGQVAY (listed as Prevotella copri) [Pc-p27 peptide 1]” the “patients whose PBMC secreted IFN-γ >3 SD above the mean value of HC” value (PBMC from RA patients [2]; 40 RA patients (39 NORA + RA1), peptide 1 μM, 5 days) was 42%, the “T cell reactivity of PBMC from Lyme arthritis patients” value (PBMC from RA patients [2]; LA patients, peptide 1 μM) was “lacked reactivity” and the “patients with IFN-γ response, peptide with or without citrullination” value (PBMC from RA patients [2]; RA patients, FIG. 1D) was 44%. The “IFN-γ secreted by patient RA1 T cells relative to background” value (PBMC from RA patients [2]; patient RA1 PBMC, peptide 1, 2 and 4 μM, background = no antigen) was greater than 3 times background.

NPAEFVVNTSNAGAG [FLNA peptide] was tested, and the “patients … in HC” value (PBMC from RA patients [1]) was 38%.

In the case of “QGFVVKTANAGAL (Prevotella sp. HUN102) [corresponding Prevotella peptide, peptide from an uncharacterized protein of Prevotella sp., homologous to the FLNA peptide]”, the “patients … in HC” value (PBMC from RA patients [1]) is reported as 42%.

B1: GNS: recombinant human N-acetylglucosamine-6-sulfatase (Novoprotein) (protein)
chain: VFGVAAGTRRPNVVLLLTDDQDEVLGGMTPLKKTKALIGEMGMTFSSAYVPSALCCPSRASILTGKYPHNHHVVNNTLEGNCSSKSWQKIQEPNTFPAILRSMCGYQTFFAGKYLNEYGAPDAGGLEHVPLGWSYWYALEKNSKYYNYTLSINGKARKHGENYSVDYLTDVLANVSLDFLDYKSNFEPFFMMIATPAPHSPWTAAPQYQKAFQNVFAPRNKNFNIHGTNKHWLIRQAKTPMTNSSIQFLDNAFRKRWQTLLSVDDLVEKLVKRLEFTGELNNTYIFYTSDNGYHTGQFSLPIDKRQLYEFDIKVPLLVRGPGIKPNQTSKMLVANIDLGPTILDIAGYDLNKTQMDGMSLLPILRGASNLTWRSDVLVEYQGEGRNVTDPTCPSLSPGVSQCFPDCVCEDAYNNTYACVRTMSALWNLQYCEFDDQEVFVEVYNLTADPDQITNIAKTIDPELLGKMNYRLMMLQSCSGPTCRTPGVFDPGYRFDPRLMFSNRGSVRTRRFSKHLL
In the case of B1, the “patients with IgA antibody responses >3 SD above HC” value [3] is reported as 16%, the “patients with IgG antibody responses >3 SD above HC” value [3] is reported as 32% and the “positive IgG antibody responses in patients with other diseases and healthy controls” value ([3]; 106 patients with LA, SpA or CTD, 50 healthy control subjects) is reported as “none”.

B2: citrullinated GNS: recombinant GNS citrullinated in vitro with rhPAD-4 (protein)
chain: B1 chain
With B2 the “IgG antibody responses to citrullinated versus uncitrullinated protein” value [3] was “higher”.

B3: FLNA: recombinant human filamin A (Novusbio) (protein)
chain: GAPGPGPADASKVVAKGLGLSKAYVGQKSSFTVDCSKAGNNMLLVGVHGPRTPCEEILVKHVGSRLYSVSYLLKDKGEYTLVVKWGDEHIPGSPYRVVVP
B3 was tested, and the “patients with IgA antibody responses >3 SD above HC” value [3] was 15% and the “patients with IgG antibody responses >3 SD above HC” value [3] was 27%.

B4: citrullinated FLNA: recombinant filamin A citrullinated in vitro with rhPAD-4 (protein)
chain: B3 chain
With B4 the “IgG antibody responses to citrullinated versus uncitrullinated protein” value [3] was “not significantly different”.
